Data taken from patent US20140308317A1, “Polymeric Compounds And Methods Of Making And Using The Same” (CELLCEUTIX CORPORATION, priority 2012, published 2014).
≈ marks a conversion by molar mass, not a printed value. Read-outs that look alike come from different tables or passages of the source.

How the values were obtained:
[1] = tested on: Staphylococcus aureus ATCC 27660; assay: Minimum Inhibitory Concentration (MIC), modified microbroth dilution; format: cell-based; conditions: S. aureus (27660); overnight incubation (18 hours)
NIH/3T3 cells, CRL-1658 = assay: Cytotoxicity colorimetric (tetrazolium) assay; format: cell-based, mouse
Experimental: (§1) Cytotoxicity of the compounds was evaluated in a colorimetric assay using a transformed human liver cell line (HepG2, HB-8065) and an embryonic mouse cell line (NIH/3T3 cells, CRL-1658). This assay measures the bioreduction of a novel tetrazolium compound to a soluble formazan product by viable cells. HepG2 cells were seeded in 96 well plates at 2×10^4 cells/well in MEM medium with 10% fetal bovine serum (FBS) 24 hours prior to use. NIH/3T3 cells were seeded in 96 well plates at 2×10^4 cells/well in DMEM medium with 10% bovine calf serum (BCS) 24 hours prior to use. Cell monolayers were rinsed in serum-free media and incubated for one hour with compounds in serum-free media. After incubation, the media is replaced with serum supplemented media and live cells were measured using the Cell Titer 96 Aqueous […] Assay kit (Promega, Madison, Wis.). EC50 values were determined using a four parameter logistic equation: Y=Bottom+(Top-Bottom)/(1+10̂((LogEC50−X)*HillSlope)).
(§2) Actual results from a representative cytotoxicity assay are shown below in Table 2. Data is expressed as EC50 in μg/mL.

[2] = tested on: Enterococcus faecalis ATCC 29212; assay: Minimum Inhibitory Concentration (MIC), modified microbroth dilution; format: cell-based; conditions: E. faecalis (29212); overnight incubation (18 hours)
[3] = tested on: Klebsiella pneumoniae ATCC 13883; assay: as above; format: cell-based; conditions: K. pneumoniae (13883); overnight incubation (18 hours)
HepG2, HB-8065 = assay: Cytotoxicity colorimetric (tetrazolium) assay; format: cell-based, human
Experimental: as §1, §2

E. Coli ATCC 25922 = assay: Minimum Inhibitory Concentration (MIC), modified microbroth dilution; format: cell-based; conditions: E. coli (25922); overnight incubation (18 hours)
[4] = tested on: Pseudomonas aeruginosa ATCC 10145; assay: as above; format: cell-based; conditions: P. aeruginosa (10145); overnight incubation (18 hours)
[5] = NIH/3T3 cells, one hour with compound in serum-free media
[6] = HepG2 cells, one hour with compound in serum-free media

Row | SMILES | MIC50 S. aureus [1] [µg/mL] | EC50 NIH 3T3 (cytotoxicity) (NIH/3T3 cells, CRL-1658; [5]) [µg/mL] | MIC50 E. faecalis [2] [µg/mL] | MIC50 K. Pnuemnoiae [3] [µg/mL] | EC50 HepG2 (cytotoxicity) (HepG2, HB-8065; [6]) [µg/mL] | MIC50 E. coli (E. Coli ATCC 25922) [µg/mL] | MIC50 P. Aeruginosa [4] [µg/mL] | EC50 NIH 3T3 (cytotoxicity) (NIH/3T3 cells, CRL-1658) [µg/mL] | EC50 HepG2 (cytotoxicity) (HepG2, HB-8065) [µg/mL]
1 | N=C(N)NCCCc1cccc(-c2cc(-c3cccc(CCCNC(=N)N)c3)cc(C(F)(F)F)c2)c1 [Compound 114] | 0.78 (≈ 1.57 µM) | 83.5 (≈ 168 µM) | 1.56 (≈ 3.14 µM) | 3.13 (≈ 6.3 µM) | 60.6 (≈ 122 µM) | 3.13 (≈ 6.3 µM) | 12.5 (≈ 25.2 µM) | – | –
2 | NCCC#Cc1cc(-c2cc(OCCCN)cc(-c3cc(C#CCCN)cc(C(F)(F)F)c3)c2)cc(C(F)(F)F)c1 [Compound 122] | 1.56 (≈ 2.72 µM) | 14.5 (≈ 25.3 µM) | 1.56 (≈ 2.72 µM) | 3.13 (≈ 5.46 µM) | – | 3.13 (≈ 5.46 µM) | 12.5 (≈ 21.8 µM) | – | –
3 | NCC#Cc1cc(C#CCN)cc(-c2cc(-c3cc(C#CCN)cc(C#CCN)c3)cc(C(F)(F)F)c2)c1 [Compound 125] | 12.5 (≈ 24.5 µM) | 26.1 (≈ 51.1 µM) | 12.5 (≈ 24.5 µM) | 25 (≈ 49 µM) | – | 12.5 (≈ 24.5 µM) | 12.5 (≈ 24.5 µM) | – | –
4 | N=C(N)NCC#Cc1cc(C#CCNC(=N)N)cc(-c2cc(-c3cc(C#CCNC(=N)N)cc(C#CCNC(=N)N)c3)cc(C(F)(F)F)c2)c1 [Compound 126] | 1.56 (≈ 2.3 µM) | 59.7 (≈ 88 µM) | 1.56 (≈ 2.3 µM) | 6.25 (≈ 9.21 µM) | – | 6.25 (≈ 9.21 µM) | 6.25 (≈ 9.21 µM) | – | –
5 | O=C(Nc1ccc(-c2ccnc(N3CCNCC3)c2)cc1F)Nc1ccc(-c2ccnc(N3CCNCC3)c2)cc1F [Compound 142] | 100 (≈ 175 µM) | – | – | 25 (≈ 43.8 µM) | 105 (≈ 184 µM) | 12.5 (≈ 21.9 µM) | 25 (≈ 43.8 µM) | – | –
6 | NCCCOc1cc(OCCCN)cc(-c2ccc(F)c(-c3cc(-c4cc(OCCCN)cc(OCCCN)c4)ccc3F)c2)c1 [Compound 145] | 1.56 (≈ 2.46 µM) | 146.3 (≈ 230 µM) | 0.78 to 1.56 | 1.56 to 3.13 | 302 (≈ 476 µM) | 1.56 to 3.13 | 12.5 (≈ 19.7 µM) | – | –
7 | NCCCOc1cc(OCCCN)cc(-c2cc(-c3cc(-c4cc(OCCCN)cc(OCCCN)c4)cc(C(F)(F)F)c3)cc(C(F)(F)F)c2)c1 [Compound 146] | 1.56 (≈ 2.12 µM) | 35.82 (≈ 48.7 µM) | 0.78 to 1.56 | 1.56 to 3.13 | 58.6 (≈ 79.8 µM) | 1.56 to 3.13 | 6.25 (≈ 8.51 µM) | – | –
8 | Cc1cc(-c2cc(OCCCN)cc(OCCCN)c2)cc(-c2cc(C)cc(-c3cc(OCCCN)cc(OCCCN)c3)c2)c1 [Compound 147] | 0.39 (≈ 0.622 µM) | 50.94 (≈ 81.3 µM) | 0.78 (≈ 1.24 µM) | 1.56 (≈ 2.49 µM) | 164 (≈ 262 µM) | 1.56 (≈ 2.49 µM) | 6.25 (≈ 9.97 µM) | – | –
9 | NCCCOc1cc(OCCCN)cc(-c2cc(F)cc(-c3cc(F)cc(-c4cc(OCCCN)cc(OCCCN)c4)c3)c2)c1 [Compound 148] | 0.39 (≈ 0.614 µM) | 53.77 (≈ 84.7 µM) | 0.78 (≈ 1.23 µM) | 1.56 (≈ 2.46 µM) | 244 (≈ 384 µM) | 1.56 (≈ 2.46 µM) | 3.13 (≈ 4.93 µM) | – | –
10 | Cc1cc(-c2cc(OCCCN)cc(OCCCN)c2)cc(-c2cc(-c3cc(OCCCN)cc(OCCCN)c3)cc(C)c2F)c1F [Compound 149] | 0.78 (≈ 1.18 µM) | 59.19 (≈ 89.3 µM) | 1.56 (≈ 2.35 µM) | 3.13 (≈ 4.72 µM) | 98.5 (≈ 149 µM) | 3.13 (≈ 4.72 µM) | 6.25 (≈ 9.43 µM) | – | –
11 | N=C(N)NCCc1cc(CCNC(=N)N)cc(-c2cc(F)cc(-c3cc(F)cc(-c4cc(CCNC(=N)N)cc(CCNC(=N)N)c4)c3)c2)c1 [Compound 151] | 0.78 (≈ 1.14 µM) | 72.14 (≈ 106 µM) | 1.56 (≈ 2.28 µM) | 3.13 (≈ 4.58 µM) | 254 (≈ 372 µM) | 1.56 (≈ 2.28 µM) | 12.5 (≈ 18.3 µM) | – | –
12 | NCCc1cccc(-c2cc3c(c(-c4cccc(CCN)c4)c2)CCc2ccccc2C3=O)c1 [Compound 152] | 1.56 (≈ 3.49 µM) | 20.9 (≈ 46.8 µM) | 3.13 (≈ 7.01 µM) | 6.25 (≈ 14 µM) | 27.5 (≈ 61.6 µM) | 3.13 (≈ 7.01 µM) | 25 (≈ 56 µM) | – | –
13 | NCCc1cccc(-c2ccc3c(c2)C(=O)c2cc(-c4cccc(CCN)c4)ccc2CC3)c1 [Compound 153] | 1.56 (≈ 3.49 µM) | 53.3 (≈ 119 µM) | 3.13 (≈ 7.01 µM) | 6.25 (≈ 14 µM) | 80.6 (≈ 180 µM) | 6.25 (≈ 14 µM) | 25 (≈ 56 µM) | – | –
14 | NCCc1cccc(-c2ccc3c(c2)C(=O)c2cc(-c4cccc(CCN)c4)cc(-c4cccc(CCN)c4)c2CC3)c1 [Compound 154] | 0.78 (≈ 1.38 µM) | 53.4 (≈ 94.4 µM) | 6.25 (≈ 11 µM) | 6.25 (≈ 11 µM) | 85.4 (≈ 151 µM) | 1.56 (≈ 2.76 µM) | 6.25 (≈ 11 µM) | – | –
15 | NCCCOc1cc(OCCCN)cc(-c2ccc3c(c2)c2ccccc2n3CCCN)c1 [Compound 161] | 25 (≈ 56 µM) | – | 3.13 (≈ 7.01 µM) | >50 | – | >50 | 50 (≈ 112 µM) | >1000 | 790 (≈ 1770 µM)
16 | NCCNC(=O)c1cc(C(=O)NCCN)cc(-c2ccc3oc4ccc(-c5cc(C(=O)NCCN)cc(C(=O)NCCN)c5)cc4c3c2)c1 [Compound 168] | 3.13 (≈ 4.71 µM) | 32.4 (≈ 48.7 µM) | >50 | >50 | 72.6 (≈ 109 µM) | >50 | >50 | – | –
17 | CCn1c2ccc(-c3cc(C(=O)NCCN)cc(C(=O)NCCN)c3)cc2c2cc(-c3cc(C(=O)NCCN)cc(C(=O)NCCN)c3)ccc21 [Compound 169] | 3.13 (≈ 4.52 µM) | 450 (≈ 650 µM) | >50 | >50 | 312 (≈ 451 µM) | 25 (≈ 36.1 µM) | >50 | – | –
18 | NCCCNC(=O)c1cc(C(=O)NCCCN)cc(-c2ccc3sc4ccc(-c5cc(C(=O)NCCCN)cc(C(=O)NCCCN)c5)cc4c3c2)c1 [Compound 171] | 6.25 (≈ 8.48 µM) | 46.5 (≈ 63.1 µM) | >100 | >100 | 236 (≈ 320 µM) | >100 | >100 | – | –
19 | NCCN(CCN)Cc1cccc(-c2ccc3sc4ccc(-c5cccc(CN(CCN)CCN)c5)cc4c3c2)c1 [Compound 174] | 0.195 (≈ 0.344 µM) | 149 (≈ 263 µM) | 3.13 (≈ 5.52 µM) | 3.13 (≈ 5.52 µM) | 171 (≈ 302 µM) | 3.13 (≈ 5.52 µM) | 3.13 (≈ 5.52 µM) | – | –
20 | c1cc(CN2CCNCC2)cc(-c2ccc3sc4ccc(-c5cccc(CN6CCNCC6)c5)cc4c3c2)c1 [Compound 175] | 0.39 (≈ 0.732 µM) | 19.9 (≈ 37.4 µM) | 12.5 (≈ 23.5 µM) | 12.5 (≈ 23.5 µM) | 19.4 (≈ 36.4 µM) | 6.25 (≈ 11.7 µM) | 25 (≈ 46.9 µM) | – | –
21 | Nc1cccc(-c2ccc3[nH]c4ccc(-c5cccc(N)c5)cc4c3c2)c1 [Compound 177] | 1.56 (≈ 4.46 µM) | 487 (≈ 1390 µM) | >50 | >50 | >1000 | 1.56 (≈ 4.46 µM) | 12.5 (≈ 35.8 µM) | – | –
22 | NCCN(CCN)Cc1cccc(-c2ccc3[nH]c4ccc(-c5cccc(CN(CCN)CCN)c5)cc4c3c2)c1 [Compound 179] | 1.56 (≈ 2.84 µM) | 179 (≈ 326 µM) | >50 | >50 | 615 (≈ 1120 µM) | 1.56 (≈ 2.84 µM) | 25 (≈ 45.5 µM) | – | –
